Reference: article PMC4793208 (RNA, 2016)

Legend:
S. pombe Dcp1/2 = target: T1, S. pombe Dcp1/2 (Schizosaccharomyces pombe, UniProt O13828); format: biochemical
T1 sequence (O13828 1-243 limits assumed): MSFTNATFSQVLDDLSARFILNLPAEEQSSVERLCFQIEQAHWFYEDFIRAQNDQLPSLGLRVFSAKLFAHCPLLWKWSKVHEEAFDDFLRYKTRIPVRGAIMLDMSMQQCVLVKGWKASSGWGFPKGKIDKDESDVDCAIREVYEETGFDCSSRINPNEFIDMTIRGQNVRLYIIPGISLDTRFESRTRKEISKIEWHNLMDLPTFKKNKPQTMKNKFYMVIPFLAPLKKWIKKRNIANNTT
T1 sequence (Q9P805 1-127 partner): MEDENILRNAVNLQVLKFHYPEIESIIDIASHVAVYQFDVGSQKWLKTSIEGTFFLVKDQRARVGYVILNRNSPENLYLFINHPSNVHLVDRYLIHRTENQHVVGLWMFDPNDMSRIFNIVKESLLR

SpDcp1/2 = target: T2, SpDcp1/2 (Schizosaccharomyces pombe, UniProt O13828); assay: Single-turnover kinetic inhibition assay, SpDcp1/2, 29-nt native-capped RNA; format: biochemical; conditions: read-out: KI (affinity for the free enzyme), Dcp1/2 complex, subsaturating enzyme
T2 sequence (O13828 1-243): T1 sequence (O13828 1-243 limits assumed)
T2 sequence (Q9P805 1-127 partner): T1 sequence (Q9P805 1-127 partner)

Row | SMILES | inhibitory properties towards Dcp1/2 decapping (in words) (S. pombe Dcp1/2) | Ki (SpDcp1/2)
1 | C[n+]1cn([C@@H]2O[C@H](COP(=O)(O)OP(=O)([O-])OP(=O)(O)OP(=O)(O)OC[C@H]3O[C@@H](n4cnc5c(=O)[nH]c(N)nc54)[C@H](O)[C@@H]3O)[C@@H](O)[C@H]2O)c2nc(N)nc(O)c21 [Compound 17, m^7GppppG] | minimal | 
2 | Nc1nc2c(ncn2[C@@H]2O[C@H](COP(=O)(O)OP(=O)(O)OP(=O)(O)O)[C@@H](O)[C@H]2O)c(=O)[nH]1 [Compound 19, GTP] | poor Dcp1/2 inhibitors | 
3 | CO[C@H]1[C@@H](O)[C@H]([n+]2cn(C)c3c(=O)[nH]c(N)nc32)O[C@@H]1COP(=O)([O-])OP(=O)(O)OP(=O)(O)OC[C@H]1O[C@@H](n2cnc3c(=O)[nH]c(N)nc32)[C@H](O)[C@@H]1O [Compound 16, m2^7,3′-OGpppG] | poor Dcp1/2 inhibitors | 
4 | Nc1ncnc2c1ncn2[C@@H]1O[C@H](COP(=O)(O)OP(=O)(O)OP(=O)(O)O)[C@@H](O)[C@H]1O [Compound 18, ATP] | poor Dcp1/2 inhibitors | 
5 | Cn1c[n+]([C@@H]2O[C@H](COP(=O)(O)OP(=O)([O-])OP(=O)(O)OC[C@H]3O[C@@H](n4cnc5c(=O)[nH]c(N)nc54)[C@H](O)[C@@H]3O)[C@@H](O)[C@H]2O)c2nc(N)[nH]c(=O)c21 [m^7GpppG] |  | 1400 ± 300 µM
